According to PMC10053857, “Analysis of NSAIDs in Rat Plasma Using 3D-Printed Sorbents by LC-MS/MS: An Approach to Pre-Clinical Pharmacokinetic Studies” (Pharmaceutics, 2023):

Experiments:
[1] = Stability of analytes in rat plasma (bench-top, autosampler/post-operative, freeze-thaw); format: in vitro ADME; conditions: for Mean Estimated Concentration ± SD, autosampler stability: 15 °C for 24 h; for Mean Estimated Concentration ± SD, bench-top stability: 8 h at ambient temperature; for Mean Estimated Concentration ± SD, three freeze-thaw cycles: each cycle at −20 °C; for mean percentage changes in plasma during bench-top stability, post-operative, and three freeze-thaw cycles: low and high QC
Experimental: To assess the specificity and selectivity of the validated LC-MS/MS method and to determine the exclusion of endogenous interferences at the retention time of the compound and I.S., a total of six plasma samples and two plasma samples containing 50 ng/mL I.S. solution were subjected to extraction using the 3D sorbent. A calibration curve for rat plasma was constructed for standards over a range of 1–800 ng/mL for acetaminophen and 1–500 ng/mL for indomethacin. The peak area ratio of the drug and I.S. was plotted with a weighing factor of 1/X to assess acetaminophen linearity and linear regression for indomethacin. The minimum detectable concentration of analytes, also known as the lower limit of quantification (LLOQ), was established as the concentration at which the coefficient of variation (CV) is less than 20%, and the accuracy is within the range of 80–120%. Four different concentrations of quality control samples were used for six replicates to determine the intra- and inter-day precision and accuracy. As per the FDA guidelines, CV was limited to <20% for the LLOQ and ≤15% for the LQC, MQC, and HQC. Accuracy was calculated as the percentage difference between the observed and nominal concentrations of the QC samples. A comparison of the peak area ratios of analytes to I.S. of extracted samples (n = 6) and drug solutions of the same concentration was performed to evaluate the extraction recovery of molecules from rat plasma. LQC, MQC, and HQC concentrations were investigated for extraction recovery. The matrix effect of the LQC, MQC, and HQC samples was determined by deproteinizing the blank plasma samples and adding analytes and I.S. to the deproteinized sample. Furthermore, the same analyte concentrations were analyzed in aqueous solutions. The matrix factor was calculated using the following equation: (peak area of post-extracted standard analytes/peak area of the analyte in aqueous solution) × 100. To test the dilution integrity, the range of the standard compound concentrations was increased beyond the calibration range. Plasma samples with 1200 ng/mL of acetaminophen and indomethacin were individually prepared and then diluted two-fold and four-fold using blank plasma. The dilution integrity of concentrations was evaluated with %CV <15%. A series of injections was performed to assess the carry-over effect of acetaminophen and indomethacin. The injections included a blank solvent sample, a higher concentration standard sample, a blank plasma sample extracted with the 3D sorbent, and a higher concentration sample extracted with 3D sorbent from plasma. The thresholds for carry-over effects were 20% of the mean extracted LLOQ signal and 5% of the I.S. response. The stability of acetaminophen and indomethacin in rat plasma was evaluated at six low- and high-quality control sample replicates. Benchtop and post-operative stability studies were conducted at 8 h at ambient temperature and 15 °C for 24 h, respectively. Quality control samples were stored at −20 °C and thawed at room temperature every 24 h for freeze-thaw stability, and after three freeze-thaw cycles, samples were analyzed.

in vivo = test: in vivo; design: species or system male Sprague-Dawley rats; conditions: male, Sprague-Dawley, rat, po
Experimental: A 3D sorbent was used as the extraction device to evaluate the in vivo pharmacokinetics of acetaminophen and indomethacin. The Institutional Animal Ethics Committee of the National Institute of Pharmaceutical Education and Research, Guwahati (NIPER/CAF/IAEC/2022/60) approved all the animal experiments. For the pharmacokinetic study, the animal house was kept at a temperature of 25 ± 1 °C with a relative humidity of 50 ± 15%. The rats were maintained on a 12-h dark/light cycle and had free access to food and water. Prior to the study, the animals fasted for 12 h. To minimize variations in drug concentration in the plasma, 18 male Sprague-Dawley rats of similar weight and age were used. Rats were administered 50 mg/kg acetaminophen and 10 mg/kg indomethacin in saline through oral gavage to a different group. Blood samples were collected and thoroughly vortexed at 0.25, 0.50, 1, 2, 4, 6, and 8 h before being centrifuged at 5000 rpm for 20 min at 4 °C. The resulting plasma samples were separated and subjected to analysis using LC-MS/MS. The 3D extraction prototype was used to extract analytes from the plasma by introducing 90 µL of plasma spiked with 10 µL of an internal standard (I.S., 50 ng/mL), making up to 1 mL with deionized water, and adding the 3D extraction device for the adsorption process. After 15 min of adsorption in the vortexes, the remaining residue was collected for further analysis, the prototype was transferred into a fresh microcentrifuge tube, and desorption solvents (water and acetonitrile) were added in a 1:1 (v/v) ratio and vortexed for 15 min. Samples were collected after successful desorption and analyzed using LC-MS/MS.
Male Sprague-Dawley rats (n = 6) were used for pharmacokinetic studies, and oral doses of indomethacin and acetaminophen were separately administered to overnight-fasted rats. Blood was collected through retro-orbital puncture at different time points, and plasma was separated and stored for further analysis. Plasma containing indomethacin and acetaminophen was added to the microcentrifuge tube containing the activated extraction device for adsorption and vortexed for 15 min with 1 mL of water, after which the analytes present in the plasma were bound to the surface of the cartridge. After adsorption for 15 min, the remaining solvent was transferred into a fresh tube and centrifuged to precipitate the matrix. The resulting supernatant was collected and introduced into an LC-MS/MS system to quantify the unbound concentration. The sorbent was transferred into a fresh microcentrifuge tube for desorption using acetonitrile and water and vortexed for 15 min to complete the process. The solution was collected, followed by centrifugation, and the supernatant was filtered through a 0.2µm filter. The resulting filtrate was then subjected to LC-MS/MS analysis to measure the indomethacin and acetaminophen concentration in the plasma.
An investigation into the pharmacokinetics of indomethacin and acetaminophen in rats was conducted through oral administration, employing LC-ESI-MS/MS analysis. Figure 9 illustrates the resulting pharmacokinetic profile, while Table 4 presents the computed pharmacokinetic parameters of both substances, obtained via PK Analysis Add-ins in the Microsoft Excel Program. […] The mean area under the curve (AUC0–t) for indomethacin is 0.93 µg h/mL and for acetaminophen is 32.33 µg h/mL. […] Based on the obtained results, the developed 3D-printed sorbent efficiently extracted analytes from plasma, reduced sample preparation time, and minimized the use of organic solvents during sample preparation.

[2] = acetaminophen, HQC, theoretical 600 ng/mL
[3] = acetaminophen, LQC, theoretical 3 ng/mL
[4] = indomethacin, HQC, theoretical 400 ng/mL
[5] = indomethacin, LQC, theoretical 3 ng/mL

CC(=O)Nc1ccc(O)cc1 [Acetaminophen]
Mean Estimated Concentration ± SD, autosampler stability [1, 2]: 596.26 ± 8.41 ng/mL
Mean Estimated Concentration ± SD, bench-top stability [1, 2]: 592.92 ± 10.80 ng/mL
Mean Estimated Concentration ± SD, three freeze-thaw cycles [1, 2]: 591.92 ± 6.66 ng/mL
Mean Estimated Concentration ± SD, autosampler stability [1, 3]: 2.92 ± 0.15 ng/mL
Mean Estimated Concentration ± SD, bench-top stability [1, 3]: 2.91 ± 0.16 ng/mL
Mean Estimated Concentration ± SD, three freeze-thaw cycles [1, 3]: 3.01 ± 0.09 ng/mL
mean percentage changes in plasma during bench-top stability, post-operative, and three freeze-thaw cycles [1]: within acceptable limits
AUC (in vivo; 50 mg/kg): 32400 ± 10800 ng·h/mL
AUC(0-t) (in vivo; 50 mg/kg): 32300 ± 10800 ng·h/mL
Cmax (in vivo; 50 mg/kg): 27300 ± 9900 ng/mL
Tmax (in vivo; 50 mg/kg): 30 to 60 min
half-life (in vivo; 50 mg/kg): 48.6 ± 6 min
k el (in vivo; 50 mg/kg): 0.000236 s⁻¹

COc1ccc2c(c1)c(CC(=O)O)c(C)n2C(=O)c1ccc(Cl)cc1 [Indomethacin]
Mean Estimated Concentration ± SD, autosampler stability [1, 4]: 391.82 ± 6.72 ng/mL
Mean Estimated Concentration ± SD, bench-top stability [1, 4]: 401.61 ± 7.80 ng/mL
Mean Estimated Concentration ± SD, three freeze-thaw cycles [1, 4]: 395.72 ± 13.06 ng/mL
Mean Estimated Concentration ± SD, autosampler stability [1, 5]: 2.99 ± 0.04 ng/mL
Mean Estimated Concentration ± SD, bench-top stability [1, 5]: 2.98 ± 0.11 ng/mL
Mean Estimated Concentration ± SD, three freeze-thaw cycles [1, 5]: 2.96 ± 0.12 ng/mL
mean percentage changes in plasma during bench-top stability, post-operative, and three freeze-thaw cycles [1]: within acceptable limits
AUC (in vivo; 10 mg/kg): 970 ± 200 ng·h/mL
AUC(0-t) (in vivo; 10 mg/kg): 930 ± 170 ng·h/mL
Cmax (in vivo; 10 mg/kg): 330 ± 40 ng/mL
Tmax (in vivo; 10 mg/kg): 30 to 60 min
half-life (in vivo; 10 mg/kg): 107 ± 26.4 min
k el (in vivo; 10 mg/kg): 0.000114 s⁻¹
